In PubChem BioAssay (NCI):
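How tested: cells in 96-well plates exposed to compound for 48 hours at five concentrations. Here, GI50 denotes the concentration required for 50% inhibition of growth. TGI marks complete inhibition of growth.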

Assays:
Assay in all cases: DTP human tumour cell line panel, 48 h
SK-MEL-5 melanoma = test system: SK-MEL-5 melanoma
HS 578T breast = test system: HS 578T breast
SNB-75 CNS = test system: SNB-75 CNS
SK-OV-3 ovarian = test system: SK-OV-3 ovarian
SK-MEL-2 melanoma = test system: SK-MEL-2 melanoma
UACC-62 melanoma = test system: UACC-62 melanoma
COLO 205 colon = test system: COLO 205 colon
SW-620 colon = test system: SW-620 colon
SF-295 CNS = test system: SF-295 CNS
RXF 393 renal = test system: RXF 393 renal

SMILES	GI50 (SK-MEL-5 melanoma) [µM]	TGI (SK-MEL-5 melanoma) [µM]	GI50 (HS 578T breast) [µM]	TGI (HS 578T breast) [µM]	GI50 (SNB-75 CNS) [µM]	TGI (SNB-75 CNS) [µM]	GI50 (SK-OV-3 ovarian) [µM]	TGI (SK-OV-3 ovarian) [µM]	GI50 (SK-MEL-2 melanoma) [µM]	TGI (SK-MEL-2 melanoma) [µM]	GI50 (UACC-62 melanoma) [µM]	TGI (UACC-62 melanoma) [µM]	GI50 (COLO 205 colon) [µM]	TGI (COLO 205 colon) [µM]	GI50 (SW-620 colon) [µM]	TGI (SW-620 colon) [µM]	GI50 (SF-295 CNS) [µM]	TGI (SF-295 CNS) [µM]	TGI (RXF 393 renal) [µM]	GI50 (RXF 393 renal) [µM]
COc1ccccc1NS(=O)(=O)c1ccc2oc(SC(C)C)nc2c1	3.99	17.4	33.6	> 100	27.4	84.3	33.5	> 100	15.6	61.5	18.5	> 100	18.6	40.1	31.6	> 100	11.1	37	–	–
CC1NC(=O)C2=C1C(N)=NC(=O)C2 (centres undefined)	–	> 100	–	–	–	> 100	–	> 100	–	> 100	–	> 100	–	> 100	–	> 100	–	> 100	> 100	–
CCOc1ccc(O)cc1[P+](c1ccccc1)(c1ccccc1)c1ccccc1	–	4.7	–	–	–	25.6	–	27.1	–	–	–	17.8	–	10	–	–	–	19.9	17.9	–
NNC(=O)c1ccc(OCc2nc3ccccc3[nH]2)cc1	–	> 100	–	> 100	–	–	–	> 100	–	> 100	–	> 100	–	> 100	–	> 100	–	> 100	> 100	–
C=CCOC(=O)C1CCC(=O)N1C(=O)C(Cl)Cl (centres undefined)	–	> 100	–	–	–	> 100	–	> 100	–	> 100	–	> 100	–	> 100	–	> 100	–	> 100	–	–
O=C(OC/C=C1C=C(OC(=O)c2ccccc2)/C(=N/N(C(=O)c2ccccc2)c2ccccc2)O\1)c1ccccc1	19	35.5	–	–	18.5	37.9	–	23.6	–	27	–	–	–	–	–	22.5	–	21.4	5.58	–
O=C(C/C(CCC(=O)N(Cc1ccccc1)Cc1ccccc1)=N/Nc1ccc([N+](=O)[O-])cc1[N+](=O)[O-])c1ccccc1	–	–	–	–	–	> 100	–	> 100	–	> 100	–	> 100	–	> 100	–	> 100	–	> 100	–	–
Nc1nc(=O)n([C@@H]2CS[C@H](CO)O2)cc1F	> 100	> 100	> 100	> 100	–	–	> 100	> 100	> 100	> 100	> 100	> 100	> 100	> 100	> 100	> 100	> 100	> 100	> 100	> 100
CCOC(=O)c1cnn2c3ccccc3n(S(=O)(=O)c3ccc(OC)cc3)c12	0.319	2.27	0.459	> 100	–	–	0.786	> 100	4.03	> 100	0.574	> 100	0.289	1.08	0.269	> 100	0.255	–	–	0.232
NCCCCCCNCc1cccc2ccccc12	–	> 100	–	–	–	> 100	–	> 100	–	> 100	–	> 100	–	> 100	–	> 100	–	> 100	> 100	–
O=c1[nH]c(=O)n(C2OC(CO)C(O)C2O)cc1OCC(F)(F)F (centres undefined)	–	> 100	–	–	–	> 100	–	> 100	–	> 100	–	> 100	–	> 100	–	> 100	–	> 100	> 100	–
COc1cc2c(cc1C1=NC(C)(C)CO1)OCO2	–	> 100	–	–	–	> 100	–	> 100	–	> 100	–	> 100	–	> 100	–	> 100	–	> 100	> 100	–
CCOC(=O)/C(=C/c1ccc(N(CCC#N)CCC#N)cc1C)NC(=O)/C=C/c1ccccc1	–	> 100	–	–	–	> 100	–	> 100	–	> 100	–	> 100	–	> 100	–	> 100	–	> 100	> 100	–
O=C1C2C3C=C4c5ccccc5N(c5ccccc5)C4(C2C(=O)N1c1ccc(Br)cc1)[C@H]1C(=O)N(c2ccc(Br)cc2)C(=O)[C@@H]31 (some centres undefined)	–	> 100	–	–	–	> 100	–	> 100	–	> 100	–	> 100	–	> 100	–	> 100	–	> 100	> 100	–
COc1cc(-n2ccnc2)cc(OC)c1OC	59	> 100	> 100	> 100	–	–	80.2	> 100	64.1	> 100	36	> 100	> 100	> 100	> 100	> 100	20.9	63.1	> 100	> 100
COC(=O)/C=c1\s/c(=C\C(=O)OC)c2ccccc12	–	> 100	–	–	–	> 100	–	> 100	–	> 100	–	> 100	–	> 100	–	> 100	–	> 100	> 100	–
COC1C2c3cc4c(cc3CC(C#N)(c3ccccc32)N1C(=O)c1ccccc1)OCO4 (centres undefined)	–	> 100	–	–	–	> 100	–	> 100	–	> 100	–	> 100	–	> 100	–	> 100	–	> 100	> 100	–
CCN1C[C@]2(COC)[C@H](O)C[C@H](OC)[C@]34C1[C@H]([C@H](OC)[C@H]23)[C@]1(OC(C)=O)[C@H]2[C@@H](OC(=O)c3ccccc3)[C@](O)(C[C@H]24)[C@@H](OC)[C@@H]1O	–	> 100	–	> 100	–	> 100	–	> 100	–	> 100	–	> 100	–	> 100	–	> 100	–	> 100	–	–
COc1ccc(Nc2nc3cc(N)cc(N)c3nc2-c2ccccc2)cc1OC	12.2	25.5	18.5	50.2	–	–	38.2	87.5	27.2	> 100	13.4	27.4	19.8	41.2	15.5	35.9	16.9	45.3	49.4	8.15
